Results as given in patent publication US20160158200A1, “Combinations of Hepatitis C Virus Inhibitors” (priority 2013, published 2016).

Key:
[1] = test system: HCV genotype 1a L31V variant with leucine 31 changed to valine in the NS5A protein; test: microbe, parasite or virus in culture; type: cell-based; settings: genotype 1a L31V replicon; test compound titrated with compound N47 fixed at 200 nM versus singly
[2] = test system: HCV genotype 1a Y93H variant with tyrosine 93 changed to histidine in the NS5A protein; test: microbe, parasite or virus in culture; type: cell-based; settings: genotype 1a Y93H replicon; test compound titrated with compound N47 fixed at 200 nM versus singly
Experimental: Combinations can be examined for synergistic activity using a variety of putative NS5A-targeting compounds and a variety of test compounds. […] The test compound can be chosen from compounds exemplified below, which were prepared by methods known in the art, or from others disclosed in the literature.
Similarly, BMS-790052 can be tested singly and in combination with a fixed amount of compound N47 in the HCV replicon cell based assay consisting of the genotype 1a Y93H variant with tyrosine 93 changed to histidine in the NS5A protein.

| SMILES | Fold-Synergistic G-1a (L31V) [1] | Fold-Synergistic G-1a (Y93H) [2] |
| --- | --- | --- |
| CCN(CC)[C@@H](C(=O)N1CCC[C@H]1c1nc2c([nH]1)CCCc1cc(-c3ccc4nc([C@@H]5CCCN5C(=O)[C@@H](c5ccccc5)N(CC)CC)[nH]c4c3)ccc1-2)c1ccccc1 | <10 fold | <10 fold |
| C=C1C[C@@H](c2nc(-c3ccc(-c4ccc5cc(-c6c[nH]c([C@@H]7CC(=C)CN7C(=O)[C@@H](NC(=O)OC)C(C)C)n6)ccc5c4)cc3)c[nH]2)N(C(=O)[C@@H](NC(=O)OC)C(C)C)C1 | <10 fold | >100 fold |
| COC(=O)N[C@H](C(=O)N1[C@@H]2CCC[C@@H]2C[C@H]1c1nc(-c2ccc(-c3ccc(-c4c[nH]c([C@@H]5C[C@H]6CCC[C@H]6N5C(=O)[C@@H](NC(=O)OC)C(C)C)n4)cc3)cc2)c[nH]1)C(C)C | >100 fold | >100 fold |
| O=C(Nc1ccc(-c2ccc(NC(=O)[C@@H]3CCCN3C(=O)Cc3ccccc3)cc2)cc1)[C@@H]1CCCN1C(=O)Cc1ccccc1 | <10 fold | <10 fold |
| COC(=O)N[C@H](C(=O)N1CC2(CC2)C[C@H]1c1nc(-c2ccc3c(c2)C(F)(F)c2cc(-c4ccc5nc([C@@H]6[C@H]7CC[C@H](C7)N6C(=O)[C@@H](NC(=O)OC)C(C)C)[nH]c5c4)ccc2-3)c[nH]1)C(C)C | >10 fold | >100 fold |
| COC(=O)N[C@H](C(=O)N1[C@@H]2C[C@@H]2C[C@H]1c1nc2ccc(C#CC#Cc3ccc4nc([C@@H]5C[C@H]6C[C@H]6N5C(=O)[C@@H](NC(=O)OC)C(C)C)[nH]c4c3)cc2[nH]1)C(C)C | >10 fold | >100 fold |
| COC(=O)N[C@H](C(=O)N1[C@H](c2ncc(-c3ccc(-c4ccc(-c5cnc([C@@H]6C[C@H](C)[C@H](C)N6C(=O)[C@@H](NC(=O)OC)C(C)C)[nH]5)cc4)cc3)[nH]2)C[C@H](C)[C@@H]1C)C(C)C | >100 fold | >100 fold |
| COC(=O)N[C@H](C(=O)N1C[C@@H]2C[C@@H]2[C@H]1c1ncc(-c2ccc(-c3ccc(-c4cnc([C@@H]5[C@H]6C[C@H]6CN5C(=O)[C@@H](NC(=O)OC)C(C)C)[nH]4)cc3)cc2)[nH]1)C(C)C | >100 fold | >100 fold |
| CC[C@H]1CC[C@@H](c2ncc(-c3ccc(-c4ccc(-c5cnc([C@@H]6CC[C@H](CC)N6C(=O)[C@@H](NC(=O)OC)C(C)C)[nH]5)cc4)cc3)[nH]2)N1C(=O)[C@@H](NC(=O)OC)C(C)C | >100 fold | >100 fold |
| COC(=O)N[C@H](C(=O)N1[C@@H]2C[C@@H]2C[C@H]1c1ncc(-c2ccc([C@@H]3C[C@H]3c3ccc(-c4cnc([C@@H]5C[C@H]6C[C@H]6N5C(=O)[C@@H](NC(=O)OC)C(C)C)[nH]4)cc3)cc2)[nH]1)C(C)C | >10 fold | >10 fold |
| COC(=O)N[C@H](C(=O)N1[C@@H]2C[C@@H]2C[C@H]1c1ncc(-c2ccc(-c3ccc(-c4ccc(-c5cnc([C@@H]6C[C@H]7C[C@H]7N6C(=O)[C@@H](NC(=O)OC)C(C)C)[nH]5)cc4)c4[nH]ccc34)cc2)[nH]1)C(C)C | >10 fold | >10 fold |
| COC(=O)N[C@H](C(=O)N1[C@@H]2C[C@@H]2C[C@H]1c1ncc(-c2ccc(C#Cc3ccc(-c4cnc([C@@H]5C[C@H]6C[C@H]6N5C(=O)[C@@H](NC(=O)OC)C(C)C)[nH]4)cc3)cc2)[nH]1)C(C)C | <10 fold | >10 fold |
| COC(=O)N[C@H](C(=O)N1CCC[C@H]1c1ncc(-c2ccc(-c3ccc(-c4cnc([C@@H]5CCCN5C(=O)[C@@H](NC(=O)OC)C(C)C)[nH]4)cc3)cc2)[nH]1)C(C)C | >100 fold | >100 fold |
